{"source": "PubChem BioAssay (NCI)", "experiment_in_all_cases": "growth of human tumour cells (NCI), 48 h", "key": {"[1]": {"test_system": "786-0 renal"}, "[2]": {"test_system": "A498 renal"}, "[3]": {"test_system": "A549 NSCLC"}, "[4]": {"test_system": "ACHN renal"}, "[5]": {"test_system": "BT-549 breast"}, "[6]": {"test_system": "CAKI-1 renal"}, "[7]": {"test_system": "CCRF-CEM leukemia"}, "[8]": {"test_system": "COLO 205 colon"}, "[9]": {"test_system": "DU-145 prostate"}, "[10]": {"test_system": "EKVX NSCLC"}, "[11]": {"test_system": "HCC-2998 colon"}, "[12]": {"test_system": "HCT-116 colon"}, "[13]": {"test_system": "HCT-15 colon"}, "[14]": {"test_system": "HL-60(TB) leukemia"}, "[15]": {"test_system": "HOP-62 NSCLC"}, "[16]": {"test_system": "HOP-92 NSCLC"}, "[17]": {"test_system": "HS 578T breast"}, "[18]": {"test_system": "HT29 colon"}, "[19]": {"test_system": "IGROV1 ovarian"}, "[20]": {"test_system": "K-562 leukemia"}, "[21]": {"test_system": "KM12 colon"}, "[22]": {"test_system": "LOX IMVI melanoma"}, "[23]": {"test_system": "M14 melanoma"}, "[24]": {"test_system": "MALME-3M melanoma"}, "[25]": {"test_system": "MCF7 breast"}, "[26]": {"test_system": "MDA-MB-231 breast"}, "[27]": {"test_system": "MDA-MB-435"}, "[28]": {"test_system": "MDA-MB-468 breast"}, "[29]": {"test_system": "MOLT-4 leukemia"}, "[30]": {"test_system": "NCI-H226 lung"}, "[31]": {"test_system": "NCI-H23 lung"}, "[32]": {"test_system": "NCI-H522 lung"}, "[33]": {"test_system": "OVCAR-3 ovarian"}, "[34]": {"test_system": "OVCAR-5 ovarian"}, "[35]": {"test_system": "OVCAR-8 ovarian"}, "[36]": {"test_system": "PC-3 prostate"}, "[37]": {"test_system": "RPMI-8226 leukemia"}, "[38]": {"test_system": "RXF 393 renal"}, "[39]": {"test_system": "SF-268 CNS"}, "[40]": {"test_system": "SF-295 CNS"}, "[41]": {"test_system": "SF-539 CNS"}, "[42]": {"test_system": "SK-MEL-2 melanoma"}, "[43]": {"test_system": "SK-MEL-28 melanoma"}, "[44]": {"test_system": "SK-MEL-5 melanoma"}, "[45]": {"test_system": "SK-OV-3 ovarian"}, "[46]": {"test_system": "SN12C renal"}, "[47]": {"test_system": "SNB-19 CNS"}, "[48]": {"test_system": "SNB-75 CNS"}, "[49]": {"test_system": "T-47D breast"}, "[50]": {"test_system": "TK-10 renal"}, "[51]": {"test_system": "UACC-257 melanoma"}, "[52]": {"test_system": "UACC-62 melanoma"}, "[53]": {"test_system": "UO-31 renal"}}, "note": "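Method: 48-hour compound exposure of cells in 96-well plates, five concentrations, linear interpolation of endpoints. At the GI50, growth is halved. TGI marks complete inhibition of growth.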", "data": [{"smiles": "Cn1cc(-c2cc3nc(-c4cn(C)c5ncc(Br)cc45)cc(N)n3n2)c2cc(Cl)ccc21", "values": [{"measurement": "GI50", "setting": "[1]", "result": 1760, "unit": "nM"}, {"measurement": "TGI", "setting": "[1]", "result": 3200, "unit": "nM"}, {"measurement": "GI50", "setting": "[2]", "result": 7390, "unit": "nM"}, {"measurement": "TGI", "setting": "[2]", "result": 24000, "unit": "nM"}, {"measurement": "GI50", "setting": "[3]", "result": 1620, "unit": "nM"}, {"measurement": "TGI", "setting": "[3]", "result": 3540, "unit": "nM"}, {"measurement": "GI50", "setting": "[4]", "result": 1550, "unit": "nM"}, {"measurement": "TGI", "setting": "[4]", "result": 2880, "unit": "nM"}, {"measurement": "GI50", "setting": "[5]", "result": 1910, "unit": "nM"}, {"measurement": "TGI", "setting": "[5]", "result": 4240, "unit": "nM"}, {"measurement": "GI50", "setting": "[6]", "result": 1450, "unit": "nM"}, {"measurement": "TGI", "setting": "[6]", "result": 2950, "unit": "nM"}, {"measurement": "GI50", "setting": "[7]", "result": 2870, "unit": "nM"}, {"measurement": "TGI", "setting": "[7]", "result": 9950, "unit": "nM"}, {"measurement": "GI50", "setting": "[8]", "result": 2560, "unit": "nM"}, {"measurement": "TGI", "setting": "[8]", "result": 6650, "unit": "nM"}, {"measurement": "GI50", "setting": "[9]", "result": 1780, "unit": "nM"}, {"measurement": "TGI", "setting": "[9]", "result": 3610, "unit": "nM"}, {"measurement": "GI50", "setting": "[10]", "result": 1480, "unit": "nM"}, {"measurement": "TGI", "setting": "[10]", "result": 3340, "unit": "nM"}, {"measurement": "GI50", "setting": "[11]", "result": 1740, "unit": "nM"}, {"measurement": "TGI", "setting": "[11]", "result": 3170, "unit": "nM"}, {"measurement": "GI50", "setting": "[12]", "result": 1550, "unit": "nM"}, {"measurement": "TGI", "setting": "[12]", "result": 2960, "unit": "nM"}, {"measurement": "GI50", "setting": "[13]", "result": 1570, "unit": "nM"}, {"measurement": "TGI", "setting": "[13]", "result": 3160, "unit": "nM"}, {"measurement": "GI50", "setting": "[14]", "result": 1990, "unit": "nM"}, {"measurement": "TGI", "setting": "[14]", "result": 5060, "unit": "nM"}, {"measurement": "GI50", "setting": "[15]", "result": 1720, "unit": "nM"}, {"measurement": "TGI", "setting": "[15]", "result": 3480, "unit": "nM"}, {"measurement": "GI50", "setting": "[16]", "result": 1860, "unit": "nM"}, {"measurement": "TGI", "setting": "[16]", "result": 3740, "unit": "nM"}, {"measurement": "GI50", "setting": "[17]", "result": 1890, "unit": "nM"}, {"measurement": "TGI", "setting": "[17]", "result": 4480, "unit": "nM"}, {"measurement": "GI50", "setting": "[18]", "result": 1910, "unit": "nM"}, {"measurement": "TGI", "setting": "[18]", "result": 3620, "unit": "nM"}, {"measurement": "GI50", "setting": "[19]", "result": 1710, "unit": "nM"}, {"measurement": "TGI", "setting": "[19]", "result": 3380, "unit": "nM"}, {"measurement": "GI50", "setting": "[20]", "result": 1840, "unit": "nM"}, {"measurement": "TGI", "setting": "[20]", "result": 5500, "unit": "nM"}, {"measurement": "GI50", "setting": "[21]", "result": 1490, "unit": "nM"}, {"measurement": "TGI", "setting": "[21]", "result": 3960, "unit": "nM"}, {"measurement": "GI50", "setting": "[22]", "result": 1610, "unit": "nM"}, {"measurement": "TGI", "setting": "[22]", "result": 2960, "unit": "nM"}, {"measurement": "GI50", "setting": "[23]", "result": 1710, "unit": "nM"}, {"measurement": "TGI", "setting": "[23]", "result": 3250, "unit": "nM"}, {"measurement": "GI50", "setting": "[24]", "result": 1740, "unit": "nM"}, {"measurement": "TGI", "setting": "[24]", "result": 3200, "unit": "nM"}, {"measurement": "GI50", "setting": "[25]", "result": 1640, "unit": "nM"}, {"measurement": "TGI", "setting": "[25]", "result": 3250, "unit": "nM"}, {"measurement": "GI50", "setting": "[26]", "result": 1430, "unit": "nM"}, {"measurement": "TGI", "setting": "[26]", "result": 2890, "unit": "nM"}, {"measurement": "GI50", "setting": "[27]", "result": 1760, "unit": "nM"}, {"measurement": "TGI", "setting": "[27]", "result": 3380, "unit": "nM"}, {"measurement": "GI50", "setting": "[28]", "result": 1320, "unit": "nM"}, {"measurement": "TGI", "setting": "[28]", "result": 2680, "unit": "nM"}, {"measurement": "GI50", "setting": "[29]", "result": 1710, "unit": "nM"}, {"measurement": "TGI", "setting": "[29]", "result": 5070, "unit": "nM"}, {"measurement": "GI50", "setting": "[30]", "result": 1990, "unit": "nM"}, {"measurement": "TGI", "setting": "[30]", "result": 4420, "unit": "nM"}, {"measurement": "GI50", "setting": "[31]", "result": 1910, "unit": "nM"}, {"measurement": "TGI", "setting": "[31]", "result": 3980, "unit": "nM"}, {"measurement": "GI50", "setting": "[32]", "result": 1870, "unit": "nM"}, {"measurement": "TGI", "setting": "[32]", "result": 3840, "unit": "nM"}, {"measurement": "GI50", "setting": "[33]", "result": 1630, "unit": "nM"}, {"measurement": "TGI", "setting": "[33]", "result": 3250, "unit": "nM"}, {"measurement": "GI50", "setting": "[34]", "result": 1520, "unit": "nM"}, {"measurement": "TGI", "setting": "[34]", "result": 3390, "unit": "nM"}, {"measurement": "GI50", "setting": "[35]", "result": 2020, "unit": "nM"}, {"measurement": "TGI", "setting": "[35]", "result": 4960, "unit": "nM"}, {"measurement": "GI50", "setting": "[36]", "result": 1760, "unit": "nM"}, {"measurement": "TGI", "setting": "[36]", "result": 4090, "unit": "nM"}, {"measurement": "GI50", "setting": "[37]", "result": 2930, "unit": "nM"}, {"measurement": "TGI", "setting": "[37]", "result": 9380, "unit": "nM"}, {"measurement": "GI50", "setting": "[38]", "result": 1820, "unit": "nM"}, {"measurement": "TGI", "setting": "[38]", "result": 3470, "unit": "nM"}, {"measurement": "GI50", "setting": "[39]", "result": 2110, "unit": "nM"}, {"measurement": "TGI", "setting": "[39]", "result": 5110, "unit": "nM"}, {"measurement": "GI50", "setting": "[40]", "result": 1750, "unit": "nM"}, {"measurement": "TGI", "setting": "[40]", "result": 3430, "unit": "nM"}, {"measurement": "GI50", "setting": "[41]", "result": 1510, "unit": "nM"}, {"measurement": "TGI", "setting": "[41]", "result": 2880, "unit": "nM"}, {"measurement": "GI50", "setting": "[42]", "result": 1930, "unit": "nM"}, {"measurement": "TGI", "setting": "[42]", "result": 4200, "unit": "nM"}, {"measurement": "GI50", "setting": "[43]", "result": 1720, "unit": "nM"}, {"measurement": "TGI", "setting": "[43]", "result": 3230, "unit": "nM"}, {"measurement": "GI50", "setting": "[44]", "result": 1820, "unit": "nM"}, {"measurement": "TGI", "setting": "[44]", "result": 4000, "unit": "nM"}, {"measurement": "GI50", "setting": "[45]", "result": 13700, "unit": "nM"}, {"measurement": "TGI", "setting": "[45]", "result": 29100, "unit": "nM"}, {"measurement": "GI50", "setting": "[46]", "result": 1720, "unit": "nM"}, {"measurement": "TGI", "setting": "[46]", "result": 3440, "unit": "nM"}, {"measurement": "GI50", "setting": "[47]", "result": 1890, "unit": "nM"}, {"measurement": "TGI", "setting": "[47]", "result": 3830, "unit": "nM"}, {"measurement": "GI50", "setting": "[48]", "result": 1750, "unit": "nM"}, {"measurement": "TGI", "setting": "[48]", "result": 4030, "unit": "nM"}, {"measurement": "GI50", "setting": "[49]", "result": 1580, "unit": "nM"}, {"measurement": "TGI", "setting": "[49]", "result": 3630, "unit": "nM"}, {"measurement": "GI50", "setting": "[50]", "result": 1600, "unit": "nM"}, {"measurement": "TGI", "setting": "[50]", "result": 3130, "unit": "nM"}, {"measurement": "GI50", "setting": "[51]", "result": 1710, "unit": "nM"}, {"measurement": "TGI", "setting": "[51]", "result": 3560, "unit": "nM"}, {"measurement": "GI50", "setting": "[52]", "result": 1470, "unit": "nM"}, {"measurement": "TGI", "setting": "[52]", "result": 2850, "unit": "nM"}, {"measurement": "GI50", "setting": "[53]", "result": 1540, "unit": "nM"}, {"measurement": "TGI", "setting": "[53]", "result": 3330, "unit": "nM"}]}]}
